The record followed here is ChEMBL document CHEMBL1148288, “A new aliphatic amino prodrug system for the delivery of small molecules and proteins utilizing novel PEG derivatives” (J Med Chem, 2004).

Counter-ions that a name gives are not always drawn.

This assay deals with P388. Kind of assay: In vitro inhibitory activity against cancerous P388 cell line. In kind it is functional, cell-based. Particulars: Mus musculus.
In general, IC50 refers to the midpoint of a concentration-inhibition curve. A higher IC50 goes with weaker potency. Turning to `COCCOCCOC(=O)NCCOCCOCCNC(=O)COCC(=O)OCCN(CCOC(=O)COCC(=O)NCCOCCOCCNC(=O)OCCOCCOC)CC(=O)NC(=O)[C@@]1(O)Cc2c(O)c3c(c(O)c2[C@H](OC2CC(N)C(O)C(C)O2)C1)C(=O)c1c(OC)cccc1C3=O` (stereo not given in full), half-maximal inhibition (IC50) was put at 0.455 µM. The same measure for `COc1cccc2c1C(=O)c1c(O)c3c(c(O)c1C2=O)C[C@@](O)(C(=O)CO)C[C@@H]3O[C@H]1C[C@H](N)[C@H](O)[C@H](C)O1` [DOXORUBICIN HYDROCHLORIDE]: 0.017 µM; for `COCCOCCOC(=O)NCCOCCOCC(=O)OCCN(CCOC(=O)COCCOCCNC(=O)OCCOCCOC)CC(=O)NC(=O)[C@@]1(O)Cc2c(O)c3c(c(O)c2[C@H](OC2CC(N)C(O)C(C)O2)C1)C(=O)c1c(OC)cccc1C3=O` (stereo not given in full): 1.1 µM. Turning to `COCCOCCOC(=O)NCC(=O)OCCN(CCOC(=O)CNC(=O)OCCOCCOC)CC(=O)NC(=O)[C@@]1(O)Cc2c(O)c3c(c(O)c2[C@H](OC2CC(N)C(O)C(C)O2)C1)C(=O)c1c(OC)cccc1C3=O` (stereo not given in full), inhibition was half-maximal at 0.428 µM (IC50). The same measure for `COCCOCCOC(=O)NC(C)C(=O)OCCN(CCOC(=O)C(C)NC(=O)OCCOCCOC)CC(=O)NC(=O)[C@@]1(O)Cc2c(O)c3c(c(O)c2[C@H](OC2CC(N)C(O)C(C)O2)C1)C(=O)c1c(OC)cccc1C3=O` (stereo not given in full): 0.316 µM.
